According to patent US12077503B2, “Substituted cyclic amides and their use as herbicides” (FMC CORPORATION, priority 2015, dated 2024):

How the values were obtained:
Format in all cases: in vivo
[1] = test system: giant foxtail (Setaria faberi); assay: Test G Post-Emergence Protocol; settings: Setaria faberi, post-emergence, 312 h, read-out: Foxtail, Giant damage rating; for pest or weed control at 15.625 g/ha: 15.625 g ai/ha, evaluated after 13 days (100=total damage to plant; 0=no damage to plant); for pest or weed control at 62.5 g/ha: 62.5 g ai/ha
Summary of the method: (§1)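 Damage was rated 13 days after treatment from 0 (none) to 100 (plant killed). Compound was applied as a spray at 15.625, 62.5 or 250 g/ha in 50:50 acetone/water containing 0.5% Tween 20, onto 8-day-old potted plants kept in a glasshouse (24/16 °C, 14 h light, 65% humidity).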

corn (Zea mays) [2] = assay: Test G Post-Emergence Protocol; settings: Zea mays, post-emergence, 312 h, read-out: Corn damage rating; for plant injury at 15.625 g/ha: 15.625 g ai/ha, evaluated after 13 days (100=total damage to plant; 0=no damage to plant); for plant injury at 62.5 g/ha: 62.5 g ai/ha; for plant injury at 62.5 g/ha / plant injury at 250 g/ha: evaluated after 13 days, 100=total damage to plant, 0=no damage to plant; for plant injury at 250 g/ha: 250 g ai/ha
Summary of the method: as §1

[3] = test system: velvetleaf (Abutilon theophrasti); assay: Test G Post-Emergence Protocol; settings: Abutilon theophrasti, post-emergence, 312 h, read-out: Velvetleaf damage rating; for pest or weed control at 15.625 g/ha: 15.625 g ai/ha, evaluated after 13 days (100=total damage to plant; 0=no damage to plant); for pest or weed control at 62.5 g/ha: 62.5 g ai/ha; for pest or weed control at 62.5 g/ha / pest or weed control at 250 g/ha: evaluated after 13 days, 100=total damage to plant, 0=no damage to plant; for pest or weed control at 250 g/ha: 250 g ai/ha
Summary of the method: as §1

[4] = test system: redroot pigweed (Amaranthus retroflexus); assay: Test G Post-Emergence Protocol; settings: Amaranthus retroflexus, post-emergence, 312 h, read-out: Pigweed, Redroot damage rating; for pest or weed control at 15.625 g/ha: 15.625 g ai/ha, evaluated after 13 days (100=total damage to plant; 0=no damage to plant); for pest or weed control at 62.5 g/ha: 62.5 g ai/ha; for pest or weed control at 62.5 g/ha / pest or weed control at 250 g/ha: evaluated after 13 days, 100=total damage to plant, 0=no damage to plant; for pest or weed control at 250 g/ha: 250 g ai/ha
Summary of the method: as §1

[5] = test system: barnyardgrass (Echinochloa crus-galli); assay: Test G Post-Emergence Protocol; settings: Echinochloa crus-galli, post-emergence, 312 h, read-out: Barnyardgrass damage rating; for pest or weed control at 15.625 g/ha: 15.625 g ai/ha, evaluated after 13 days (100=total damage to plant; 0=no damage to plant); for pest or weed control at 62.5 g/ha: 62.5 g ai/ha; for pest or weed control at 62.5 g/ha / pest or weed control at 250 g/ha: evaluated after 13 days, 100=total damage to plant, 0=no damage to plant; for pest or weed control at 250 g/ha: 250 g ai/ha
Summary of the method: as §1

[6] = test system: ivy-leaved morning glory (Ipomoea hederacea); assay: Test G Post-Emergence Protocol; settings: Ipomoea, post-emergence, 312 h, read-out: Morningglory, Ivy-leaved damage rating; for pest or weed control at 15.625 g/ha: 15.625 g ai/ha, evaluated after 13 days (100=total damage to plant; 0=no damage to plant); for pest or weed control at 62.5 g/ha: 62.5 g ai/ha; for pest or weed control at 62.5 g/ha / pest or weed control at 250 g/ha: evaluated after 13 days, 100=total damage to plant, 0=no damage to plant; for pest or weed control at 250 g/ha: 250 g ai/ha
Summary of the method: as §1

[7] = test system: giant foxtail (Setaria faberi); assay: Test G Pre-Emergence Protocol; settings: Setaria faberi, pre-emergence, 312 h, evaluated after 13 days; for pest or weed control at 15.625 g/ha: 15.625 g ai/ha; for pest or weed control at 15.625 g/ha / pest or weed control at 250 g/ha: read-out: Foxtail, Giant damage rating (100=total damage to plant; 0=no damage to plant); for pest or weed control at 62.5 g/ha: 62.5 g ai/ha, 100=total damage to plant, 0=no damage to plant, read-out: Foxtail, Giant damage rating; for pest or weed control at 250 g/ha: 250 g ai/ha
Summary of the method: (§2)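 Glasshouse pre-emergence test: soil-sown seeds, sprayed after 1 d at 15.625, 62.5 or 250 g/ha. Conditions 24/16° C day/night, 14 h light, 65% humidity, watering twice daily. Rating 13 d post-spray (100 = total damage).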

corn (Zea mays) [8] = assay: Test G Pre-Emergence Protocol; settings: Zea mays, pre-emergence, 312 h, evaluated after 13 days; for plant injury at 15.625 g/ha: 15.625 g ai/ha; for plant injury at 15.625 g/ha / plant injury at 250 g/ha: read-out: Corn damage rating (100=total damage to plant; 0=no damage to plant); for plant injury at 62.5 g/ha: 62.5 g ai/ha, 100=total damage to plant, 0=no damage to plant, read-out: Corn damage rating; for plant injury at 250 g/ha: 250 g ai/ha
Summary of the method: as §2

[9] = test system: velvetleaf (Abutilon theophrasti); assay: Test G Pre-Emergence Protocol; settings: Abutilon theophrasti, pre-emergence, 312 h, evaluated after 13 days; for pest or weed control at 15.625 g/ha: 15.625 g ai/ha; for pest or weed control at 15.625 g/ha / pest or weed control at 250 g/ha: read-out: Velvetleaf damage rating (100=total damage to plant; 0=no damage to plant); for pest or weed control at 62.5 g/ha: 62.5 g ai/ha, 100=total damage to plant, 0=no damage to plant, read-out: Velvetleaf damage rating; for pest or weed control at 250 g/ha: 250 g ai/ha
Summary of the method: as §2

[10] = test system: redroot pigweed (Amaranthus retroflexus); assay: Test G Pre-Emergence Protocol; settings: Amaranthus retroflexus, pre-emergence, 312 h, evaluated after 13 days; for pest or weed control at 15.625 g/ha: 15.625 g ai/ha; for pest or weed control at 15.625 g/ha / pest or weed control at 250 g/ha: read-out: Pigweed, Redroot damage rating (100=total damage to plant; 0=no damage to plant); for pest or weed control at 62.5 g/ha: 62.5 g ai/ha, 100=total damage to plant, 0=no damage to plant, read-out: Pigweed, Redroot damage rating; for pest or weed control at 250 g/ha: 250 g ai/ha
Summary of the method: as §2

[11] = test system: barnyardgrass (Echinochloa crus-galli); assay: Test G Pre-Emergence Protocol; settings: Echinochloa crus-galli, pre-emergence, 312 h, evaluated after 13 days; for pest or weed control at 15.625 g/ha: 15.625 g ai/ha; for pest or weed control at 15.625 g/ha / pest or weed control at 250 g/ha: read-out: Barnyardgrass damage rating (100=total damage to plant; 0=no damage to plant); for pest or weed control at 62.5 g/ha: 62.5 g ai/ha, 100=total damage to plant, 0=no damage to plant, read-out: Barnyardgrass damage rating; for pest or weed control at 250 g/ha: 250 g ai/ha
Summary of the method: as §2

[12] = test system: ivy-leaved morning glory (Ipomoea hederacea); assay: Test G Pre-Emergence Protocol; settings: Ipomoea, pre-emergence, 312 h, evaluated after 13 days; for pest or weed control at 15.625 g/ha: 15.625 g ai/ha; for pest or weed control at 15.625 g/ha / pest or weed control at 250 g/ha: read-out: Morningglory, Ivy-leaved damage rating (100=total damage to plant; 0=no damage to plant); for pest or weed control at 62.5 g/ha: 62.5 g ai/ha, 100=total damage to plant, 0=no damage to plant, read-out: Morningglory, Ivy-leaved damage rating; for pest or weed control at 250 g/ha: 250 g ai/ha
Summary of the method: as §2

[13] = evaluated after 13 days, 100=total damage to plant, 0=no damage to plant

SMILES | pest or weed control at 15.625 g/ha [1] [%] | pest or weed control at 62.5 g/ha [1, 13] [%] | plant injury at 15.625 g/ha (corn (Zea mays) [2]) [%] | plant injury at 62.5 g/ha (corn (Zea mays) [2]) [%] | plant injury at 250 g/ha (corn (Zea mays) [2]) [%] | pest or weed control at 15.625 g/ha [3] [%] | pest or weed control at 62.5 g/ha [3] [%] | pest or weed control at 250 g/ha [3] [%] | pest or weed control at 15.625 g/ha [4] [%] | pest or weed control at 62.5 g/ha [4] [%] | pest or weed control at 250 g/ha [4] [%] | pest or weed control at 15.625 g/ha [5] [%] | pest or weed control at 62.5 g/ha [5] [%] | pest or weed control at 250 g/ha [5] [%] | pest or weed control at 15.625 g/ha [6] [%] | pest or weed control at 62.5 g/ha [6] [%] | pest or weed control at 250 g/ha [6] [%] | pest or weed control at 15.625 g/ha [7] [%] | pest or weed control at 62.5 g/ha [7] [%] | pest or weed control at 250 g/ha [7] [%] | also measured
Cc1cc(C)cc([C@H]2CN(C)C(=O)[C@@H]2C(=O)Nc2ccccc2S(C)(=O)=O)c1 (racemic) [Compound 1727] | 30 | 80 | 0 | 0 | 10 | 0 | 0 | 10 | 0 | 0 | 0 | 20 | 70 | 70 | 0 | 30 | 50 | 50 | 60 | 80 | pest or weed control at 250 g/ha ([1]; 250 g ai/ha, evaluated after 13 days, 100=total damage to plant, 0=no damage to plant): 80%; plant injury at 15.625 g/ha (corn (Zea mays) [8]): 0%; plant injury at 62.5 g/ha (corn (Zea mays) [8]): 0%; plant injury at 250 g/ha (corn (Zea mays) [8]): 0%; pest or weed control at 15.625 g/ha [9]: 0%; pest or weed control at 62.5 g/ha [9]: 0%; pest or weed control at 250 g/ha [9]: 0%; pest or weed control at 15.625 g/ha [10]: 0%; pest or weed control at 62.5 g/ha [10]: 0%; pest or weed control at 250 g/ha [10]: 30%; pest or weed control at 15.625 g/ha [11]: 30%; pest or weed control at 62.5 g/ha [11]: 40%; pest or weed control at 250 g/ha [11]: 80%; pest or weed control at 15.625 g/ha [12]: 0%; pest or weed control at 62.5 g/ha [12]: 0%; pest or weed control at 250 g/ha [12]: 10%
COc1c(C)cc(C2CN(C)C(=O)C2C(=O)Nc2cccc(F)c2F)cc1C (centres unmarked) [Compound 1707] | 80 | 80 | 60 | 70 | 80 | 0 | 20 | 30 | 0 | 0 | 0 | 70 | 70 | 80 | 40 | 40 | 70 | 80 | 90 | 90 | plant injury at 15.625 g/ha (corn (Zea mays) [8]): 20%; plant injury at 62.5 g/ha (corn (Zea mays) [8]): 80%; plant injury at 250 g/ha (corn (Zea mays) [8]): 80%; pest or weed control at 15.625 g/ha [9]: 10%; pest or weed control at 62.5 g/ha [9]: 10%; pest or weed control at 250 g/ha [9]: 60%; pest or weed control at 15.625 g/ha [10]: 20%; pest or weed control at 62.5 g/ha [10]: 20%; pest or weed control at 250 g/ha [10]: 40%; pest or weed control at 15.625 g/ha [11]: 70%; pest or weed control at 62.5 g/ha [11]: 80%; pest or weed control at 250 g/ha [11]: 90%; pest or weed control at 15.625 g/ha [12]: 0%; pest or weed control at 62.5 g/ha [12]: 10%; pest or weed control at 250 g/ha [12]: 30%
